In patent US12419862B2, “Use of a cathepsin s inhibitor against the formation of anti-drug antibodies” (Hoffmann-La Roche Inc., priority 2018, dated 2025):
Entries after “also recorded” stand apart in the source; their conditions may differ.

How the values were obtained:
[1] = test system: adalimumab-specific IgG response; experiment: ADA against adalimumab in hIgG1 Tg mice, ELISA (Example 1, 28 days); assay type: in vivo, C57BL/6-Tg (hIgG1,k,l) mice; details: 40 mg/kg/day via food admix from one day before first immunization until day 28, vs vehicle
Description: For immunogenicity assessment, we used the previously described human IgG1 immune-tolerant mouse model (Bessa, Boeckle et al. Pharm Res 2015, 32(7): 2344-2359). Since this human IgG transgenic mouse is tolerant to a broad range of human IgG1 antibodies (Abs), ADA responses elicited in this system are taken to reflect intrinsic immunogenic attributes of the eliciting Ab compounds also expected to cause ADA in humans.
15-week-old mice C57BL/6 wild type and C57BL/6-Tg (hIgG1,k,l) were purchased from Taconic (Denmark) and housed at the animal facilities under a 12 hour (h) light 12 h dark cycle with cycles of air ventilation and free access to water and food. 7×10 μg of CEA-112v or 7×10 μg of Humira (Adalimumab, Abbvie Germany GmbH) were injected respectively at day 0, 4, 7, 11, 14, 18 and 21 subcutaneously in the right flank or the left flank alternatively. The dosage of the cathepsin S inhibitor consumption was 40 mg/kg/day. […]
(§1) Nunc Maxisorp flat-bottom 96 well ELISA plates were coated with 100 μl per well of Humira or CEA-PGLALA (3.42 mg/ml, ID 8037) respectively at 5 μg/mL in NaHCO3100 mM buffer overnight at +4° C. […] 100 μl of substrate P-nitrophenyl phosphate ready to use (Life Technologies Cat no 002212) were added per well and after 10 min incubation at room temperature, the OD at 405 nm was read as an end-point measurement with a Versamax ELISA reader.

[2] = test system: IgG response to murine hemi-surrogate CEA-TCB; experiment: ADA against murine hemi-surrogate CEA-TCB in hIgG1 Tg mice, ELISA (Example 8); assay type: in vivo, C57BL/6-Tg (hIgG1,k,l) mice; details: 40 mg/kg/day via food admix from one week before first immunization until day 28, vs vehicle
Method: 11-15-week-old mice C57BL/6-Tg (hIgG1,k,l) mixed gender (n=20) were purchased from Taconic (Denmark) and housed at the animal facilities in room with air-conditioned under a 12 hours light/dark cycle in macrolon boxes with enriched environment and free access to water and food. 7×10 μg of CEA-TCB (P1AE3536, huCEA binder CH1A1A/mouse CD3 binder 2C11) were injected at day 0, 4, 7, 11, 14, 18 and 21 subcutaneously in the right flank or the left flank alternatively. The dosage of (2S,4R)-4-[4-(1-methyl-1H-pyrazol-4-yl)-2-trifluoromethyl-benzenesulfonyl]-1-(1-trifluoromethyl-cyclopropanecarbonyl)-pyrrolidine-2-carboxylic acid (1-cyano-cyclopropyl)-amide consumption was 40 mg/kg/day. […]
as §1, with “huCEA IgG PGLALA (P1AD9477)” for “Humira”, “hu anti mouse CD3 (P1AE2779-001-01)” for “CEA-PGLALA (3.42 mg/ml, ID 8037)”, “Technologies,” for “Technologies”

Cn1cc(-c2ccc(S(=O)(=O)[C@@H]3C[C@@H](C(=O)NC4(C#N)CC4)N(C(=O)C4(C(F)(F)F)CC4)C3)c(C(F)(F)F)c2)cn1 [cathepsin S inhibitor, (2S,4R)-4-[4-(1-methyl-1H-pyrazol-4-yl)-2-trifluoromethyl-benzenesulfonyl]-1-(1-trifluoromethyl-cyclopropanecarbonyl)-pyrrolidine-2-carboxylic acid (1-cyano-cyclopropyl)-amide]
ADA to adalimumab (adalimumab-specific IgG) [1]: reduces ADA to adalimumab; also recorded: reduced ADA levels compared to vehicle treated animals | ADA specific to CD3 binder (2C11) of CEA-TCB [2]: significantly reduced ADA to CD3 binder | CEA-specific ADA to CEA-TCB [2]: reduction of CEA-specific ADA was not significant
